Test results: patent US8895585B2, “Nicotinamide derivative or salt thereof” (FUJIFILM Corporation, priority 2010, dated 2014)

Legend:
THP-1 cells [1] = assay: TNFα generation assay; type: cell-based, human; conditions: Table 22, read-out: IC50 in TNFα generation assay
Summary of the method: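 Secreted TNFα in supernatant quantified by ELISA or AlphaLISA after 7 h culture on human IgG-coated wells (10 μg/ml coating). Cells were IFN-γ-differentiated THP-1 (10 ng/ml, 2 days), exposed to compound for 30 min at room temperature before plating.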

[2] = target: T1, glutathione S-transferase (GST)-fused full-length human Syk protein (Homo sapiens, UniProt P43405); assay: Syk enzyme assay; type: biochemical; conditions: Syk enzyme assay, Test Example 1; read-out: IC50 of Syk-inhibitory activity
T1 construct: (GST)-fused full-length human Syk protein; GST (glutathione S-transferase); purchased Carna Biosciences
Summary of the method: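 Baculovirus-expressed enzyme (1.2 ng) was preincubated with compound in HEPES pH 7.0/MgCl2/DTT buffer, 2 min shaking then 13 min at room temperature. Biotin-EDPDYEWPSA-NH2 (0.4 μM final) and ATP (27 μM final) were added for 40 min at room temperature. EDTA stop, streptavidin-XL/PT66-K TR-FRET at 615/665 nm gave IC50.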

THP-1 cells [3] = assay: Antibody-dependent phagocytosis assay; type: cell-based; conditions: Homo sapiens; THP-1 cells induced to differentiate with IFNγ; opsonized Escherichia coli; Table 23; read-out: IC50 upon phagocytosis inhibition
Description: THP-1 cells (2×10^5 cells/ml) which are human monocyte-like cell line were cultured in the presence of 10 ng/ml IFNγ for 2 days, so that the cells were induced to differentiate into macrophage-like cells. THP-1 cells that had been induced to differentiate were collected. The cells (5×10^4 cells/well) were reacted with test compounds having given concentrations at room temperature for 30 minutes. Thereafter, Escherichia coli (Life Technologies) labeled with a pH-sensitive dye (pHrodo) was subjected to opsonization using an anti-Escherichia coli antibody (Molecular Probes). Then, the resultant was added to THP-1 cells mixed with test compounds that had been induced to differentiate, followed by incubation at 37° C. for 3 hours. At the time of addition of opsonized Escherichia coli, cell-permeable fluorescent dye (Calcein AM) were simultaneously added thereto, and phagocytosis of opsonized Escherichia coli in viable cells was quantitatively determined using an IN Cell Analyzer.
In addition, the following are used in Table 23 to denote standards for evaluating IC50 upon phagocytosis inhibition. • A: Up to 1 μM • B: 1 to 3 μM • C: 3 to 6 μM

[4] = Homo sapiens, THP-1, THP-1 cells

| SMILES | IC50 (THP-1 cells [1]; [4]) [nM] | IC50 [2] [nM] | IC50 (THP-1 cells [3]) [nM] | IC50 (THP-1 cells [1]; THP-1 cells) [nM] |
| --- | --- | --- | --- | --- |
| CCCOc1cc(Nc2nc(N[C@H](CCC)[C@H](C)N)c(F)cc2C(N)=O)ccn1 [Example 006-311, 6-(((2S,3R)-2-aminohexan-3-yl)amino)-5-fluoro-2-((2-propoxypyridin-4-yl)amino)nicotinamide] | 65 to 130 | < 10 | 1000 to 3000 | – |
| CCC[C@@H](Nc1nc(Nc2ccnc(OC)c2)c(C(N)=O)cc1F)[C@H](C)N [Example 006-249, 6-(((2S,3R)-2-aminohexan-3-yl)amino)-5-fluoro-2-((2-methoxypyridin-4-yl)amino)nicotinamide] | < 65 | < 10 | 1000 to 3000 | – |
| Cc1ncc(Nc2nc(N[C@@H]3CCCC[C@@H]3N)c(F)cc2C(N)=O)cc1-n1nccn1 [Example 006-375, 6-(((1R,2S)-2-aminocyclohexyl)amino)-5-fluoro-2-((6-methyl-5-(2H-1,2,3-triazol-2-yl)pyridin-3-yl)amino)nicotinamide] | 65 to 130 | < 10 | 1000 to 3000 | – |
| NC(=O)c1cc(F)c(N[C@@H]2CCCC[C@@H]2N)nc1Nc1cc(F)c2[nH]ccc2c1 (relative stereo) [Example 004-079, 6-(cis-2-aminocyclohexylamino)-5-fluoro-2-((7-fluoro-1H-indol-5-yl)amino)nicotinamide] | < 65 | < 10 | 1000 to 3000 | – |
| CCC[C@@H](Nc1nc(Nc2cncc(-n3cccn3)c2)c(C(N)=O)cc1F)[C@H](C)N [Example 006-219, 2-((5-(1H-pyrazol-1-yl)pyridin-3-yl)amino)-6-(((2S,3R)-2-aminohexan-3-yl)amino)-5-fluoronicotinamide] | 65 to 130 | < 10 | 1000 to 3000 | – |
| CCC(N)CNc1nc(Nc2ccc3ncccc3c2)c(C(N)=O)cc1F (centres unmarked) [Example 014-001] | < 65 | < 10 | 1000 to 3000 | – |
| NC(=O)c1cc(Nc2nc(NC3CCCC[C@@H]3N)c(F)cc2C(N)=O)ccn1 (some centres unmarked) [Example 029-012] | – | – | 3000 to 6000 | – |
| CCOc1nccc(Nc2nc(N[C@@H]3CCCC[C@@H]3N)c(F)cc2C(N)=O)c1F [Example 006-433, 6-(((1R,2S)-2-aminocyclohexyl)amino)-2-((2-ethoxy-3-fluoropyridin-4-yl)amino)-5-fluoronicotinamide] | 65 to 130 | < 10 | 1000 to 3000 | – |
| CC(=O)Nc1cccc2cc(Nc3nc(N[C@@H]4CCCC[C@@H]4N)c(F)cc3C(N)=O)cnc12 [Example 004-008] | < 65 | < 10 | < 1000 | – |
| NC(=O)c1cc(F)c(NC2CCCCC2N)nc1Nc1ccc2ncccc2c1 (centres unmarked) [Example 008-006] | < 65 | < 10 | < 1000 | – |
| NC(=O)c1cc(F)c(N[C@@H]2CCCC[C@@H]2N)nc1Nc1cnc(N2CCOCC2)c(F)c1 [Example 006-395, 6-(((1R,2S)-2-aminocyclohexyl)amino)-5-fluoro-2-((5-fluoro-6-morpholinopyridin-3-yl)amino)nicotinamide] | 65 to 130 | 10 to 50 | 1000 to 3000 | – |
| CC(C)C[C@@H](Nc1nc(Nc2ccc3c(cnn3C)c2)c(C(N)=O)cc1F)[C@H](C)N [Example 006-383, 6-(((2S,3R)-2-amino-5-methylhexan-3-yl)amino)-5-fluoro-2-((1-methyl-1H-indazol-5-yl)amino)nicotinamide] | < 65 | < 10 | 1000 to 3000 | – |
| CCn1ncc2cc(Nc3nc(N[C@H](CC4CC4)[C@H](C)N)c(F)cc3C(N)=O)ccc21 [Example 006-342, 6-(((2R,3S)-3-amino-1-cyclopropylbutan-2-yl)amino)-2-((1-ethyl-1H-indazol-5-yl)amino)-5-fluoronicotinamide] | < 65 | < 10 | 1000 to 3000 | – |
| Cc1cc(Nc2nc(N[C@@H](CN)CC(C)C)c(F)cc2C(N)=O)cnc1C [Example 006-177, (R)-6-((1-amino-4-methylpentan-2-yl)amino)-2-((5,6-dimethylpyridin-3-yl)amino)-5-fluoronicotinamide] | 130 to 200 | < 10 | 1000 to 3000 | – |
| NC(=O)c1cc(F)c(N[C@@H]2CCCC[C@@H]2N)nc1Nc1cncc(-n2nccn2)c1 [Example 004-042] | 65 to 130 | < 10 | 1000 to 3000 | – |
| NC(=O)c1cc(F)c(NC2CCCCC2N)nc1Nc1cncc(-c2ccccc2)c1 (centres unmarked) [Example 002-001] | < 65 | < 10 | 1000 to 3000 | – |
| N#Cc1cc(Nc2nc(N[C@@H]3CCCC[C@@H]3N)c(F)cc2C(N)=O)cnc1N1CCOCC1 (relative stereo) [Example 004-228, 6-((cis-2-aminocyclohexyl)amino)-2-((5-cyano-6-morpholinopyridin-3-yl)amino)-5-fluoronicotinamide] | 65 to 130 | 10 to 50 | 1000 to 3000 | – |
| C[C@H](N)[C@H](Nc1nc(Nc2ccc3ncccc3c2)c(C(N)=O)cc1F)C1CC1 [Example 006-368, 6-(((1R,2S)-2-amino-1-cyclopropylpropyl)amino)-5-fluoro-2-((quinolin-6-yl)amino)nicotinamide] | < 65 | < 10 | < 1000 | – |
| Cc1ncc(Nc2nc(N[C@@H]3CCCC[C@@H]3N)c(F)cc2C(N)=O)cc1-c1ccco1 [Example 006-376, 6-(((1R,2S)-2-aminocyclohexyl)amino)-5-fluoro-2-((5-(furan-2-yl)-6-methylpyridin-3-yl)amino)nicotinamide] | < 65 | < 10 | 1000 to 3000 | – |
| COCCOc1ccc2cc(Nc3nc(N[C@@H]4CCCC[C@@H]4N)c(F)cc3C(N)=O)cnc2c1 [Example 006-173, 6-(((1R,2S)-2-aminocyclohexyl)amino)-5-fluoro-2-((7-(2-methoxyethoxy)quinolin-3-yl)amino)nicotinamide] | – | < 10 | 1000 to 3000 | 65 to 130 |
| COC[C@@H](Nc1nc(Nc2ccc3ncccc3c2)c(C(N)=O)cc1F)[C@H](C)N [Example 006-468, 6-(((2S,3S)-3-amino-1-methoxybutan-2-yl)amino)-5-fluoro-2-((quinolin-6-yl)amino)nicotinamide] | < 65 | < 10 | < 1000 | – |
| COc1cncc(Nc2nc(N[C@@H]3CCCC[C@@H]3N)c(F)cc2C(N)=O)c1 [Example 004-031] | 130 to 200 | < 10 | 1000 to 3000 | – |
| COc1cccc2cc(Nc3nc(N[C@@H]4CCCC[C@@H]4N)c(F)cc3C(N)=O)cnc12 (relative stereo) [Example 004-120, 6-(cis-2-aminocyclohexylamino)-5-fluoro-2-((8-methoxyquinolin-3-yl)amino)nicotinamide] | – | < 10 | < 1000 | – |
| CC[C@@H](Nc1nc(Nc2ccc3c(cnn3CC)c2)c(C(N)=O)cc1F)[C@H](C)N [Example 006-211, 6-(((2S,3R)-2-aminopentan-3-yl)amino)-2-((1-ethyl-1H-indazol-5-yl)amino)-5-fluoronicotinamide] | < 65 | < 10 | 1000 to 3000 | – |
| NC(=O)c1cc(F)c(N[C@@H](C(N)=O)c2ccccc2)nc1Nc1ccc2ncccc2c1 [Example 012-008] | 65 to 130 | 10 to 50 | 1000 to 3000 | – |
| CCn1ncc2cc(Nc3nc(N[C@@H](CN)CC(C)C)c(F)cc3C(N)=O)ccc21 [Example 006-322, (R)-6-((1-amino-4-methylpentan-2-yl)amino)-2-((1-ethyl-1H-indazol-5-yl)amino)-5-fluoronicotinamide] | < 65 | < 10 | < 1000 | – |
| CC[C@@H](Nc1nc(Nc2ccc3c(OC)nccc3c2)c(C(N)=O)cc1F)[C@H](C)N [Example 006-263, 6-(((2S,3R)-2-aminopentan-3-yl)amino)-5-fluoro-2-((1-methoxyisoquinolin-6-yl)amino)nicotinamide] | < 65 | < 10 | 1000 to 3000 | – |
| CCC[C@@H](Nc1nc(Nc2cncc(F)c2)c(C(N)=O)cc1F)[C@H](C)N [Example 006-301, 6-(((2S,3R)-2-aminohexan-3-yl)amino)-5-fluoro-2-((5-fluoropyridin-3-yl)amino)nicotinamide] | 65 to 130 | 10 to 50 | 1000 to 3000 | – |
| COc1cc(Nc2nc(NC[C@H](C)N)c(F)cc2C(N)=O)cc(OC)n1 [Example 006-098, (S)-6-((2-aminopropyl)amino)-2-((2,6-dimethoxypyridin-4-yl)amino)-5-fluoronicotinamide] | < 65 | < 10 | < 1000 | – |
| NC(=O)c1cc(F)c(NC2CCCCC2N)nc1Nc1cccc(C(F)(F)F)c1 (centres unmarked) [Example 008-007] | – | < 10 | 3000 to 6000 | – |
